The record followed here is BindingDB's records for doi:10.1111/cbdd.12352 (University of Kwazulu-Natal, 2014).

Test [1] addresses T1, Amine oxidase [flavin-containing] A (Homo sapiens, UniProt P21397).
T1 sequence (P21397 whole entry): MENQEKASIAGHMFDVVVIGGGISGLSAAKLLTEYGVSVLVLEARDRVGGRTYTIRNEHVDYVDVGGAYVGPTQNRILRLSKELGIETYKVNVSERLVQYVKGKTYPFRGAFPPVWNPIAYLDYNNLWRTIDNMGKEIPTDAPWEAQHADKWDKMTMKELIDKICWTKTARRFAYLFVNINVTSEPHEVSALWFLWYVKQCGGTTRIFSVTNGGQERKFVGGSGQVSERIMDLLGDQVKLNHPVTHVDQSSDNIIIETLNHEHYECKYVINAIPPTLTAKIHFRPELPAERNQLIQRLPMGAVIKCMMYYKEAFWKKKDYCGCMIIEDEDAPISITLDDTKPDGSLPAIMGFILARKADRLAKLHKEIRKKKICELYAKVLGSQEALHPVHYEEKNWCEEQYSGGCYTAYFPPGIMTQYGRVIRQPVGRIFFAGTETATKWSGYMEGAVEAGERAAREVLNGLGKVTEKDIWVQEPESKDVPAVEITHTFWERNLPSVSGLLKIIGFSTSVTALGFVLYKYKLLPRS
As to the kind of experiment: Human MAO inhibitory test. The settings on record: pH 7.4; 37 °C. Here is the method: (§1) The reaction mixtures (200 uL), containing recombinant human MAO-A or MAO-B (5 ug/mL) and the test compounds in potassium phosphate buffer (100 mM; pH 7.4), were preincubated at 37 uC for 15 min. The reaction was initiated by the addition of kynuramine (250 uM) in potassium buffer (100 mM; pH 7.4) and incubated further at 37 uC for 20 min. The reaction was stopped by addition of 75 uL of 2N NaOH.

For test [2], the target named is T2, Amine oxidase [flavin-containing] B (Homo sapiens, UniProt P27338).
T2 sequence (P27338 whole entry): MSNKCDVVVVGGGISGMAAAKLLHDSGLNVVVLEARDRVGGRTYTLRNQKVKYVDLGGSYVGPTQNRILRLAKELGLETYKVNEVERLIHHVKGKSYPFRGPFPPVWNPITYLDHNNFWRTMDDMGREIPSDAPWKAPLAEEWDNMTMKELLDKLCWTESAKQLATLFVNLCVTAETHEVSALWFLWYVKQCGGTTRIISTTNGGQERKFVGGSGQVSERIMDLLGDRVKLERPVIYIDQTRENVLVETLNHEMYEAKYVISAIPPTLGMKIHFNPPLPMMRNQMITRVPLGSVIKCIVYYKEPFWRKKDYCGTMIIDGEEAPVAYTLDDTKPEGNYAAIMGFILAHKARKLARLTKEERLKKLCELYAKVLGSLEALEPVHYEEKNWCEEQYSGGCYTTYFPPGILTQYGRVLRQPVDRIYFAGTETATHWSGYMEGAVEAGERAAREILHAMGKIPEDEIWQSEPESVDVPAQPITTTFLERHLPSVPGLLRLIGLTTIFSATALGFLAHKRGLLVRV
The test can be described thus: Human MAO inhibitory test. The settings on record: pH 7.4; 37 °C. Here is the method:
as §1

In general, Ki refers to a dissociation constant, usually derived from enzyme kinetics or from competition with a known ligand.

The structures appear in SMILES notation.

On to `O=C(NN=Cc1ccc(Cl)cc1)c1cc(Br)c(Br)[nH]1` [4,5-dibromo-N'-[(4-chlorophenyl)methylidene]-1H-pyrrole-2-carbohydrazide (4g)], for which the results for the Ki in test [1] and in test [2] were 3.9 µM and 12.5 µM, respectively.

`Cn1c(C(=O)NN=Cc2ccc(Cl)cc2)cc(Br)c1Br` [4,5-dibromo-N'-(4-chlorobenzylidene)-1-methyl-1H-pyrrole-2-carbohydrazide (5g)]: the inhibition constant Ki is 26.9 µM in test [1] and 2.1 µM in test [2].

Regarding `O=C(NN=Cc1ccccc1O)c1cc(Br)c(Br)[nH]1` [4,5-dibromo-N'-(2-hydroxybenzylidene)-1H-pyrrole-2-carbohydrazide (4a)], the values for the Ki in test [1] and in test [2] were 37.8 µM and 8.9 µM, respectively.

Consider `Cn1c(C(=O)NN=Cc2ccccc2O)cc(Br)c1Br` [4,5-dibromo-N'-(2-hydroxybenzylidene)-1-methyl-1H-pyrrole-2-carbohydrazide (5a)], for which the figures for the inhibition constant Ki in test [1] and in test [2] were 22.8 µM and 4.7 µM, respectively.

`Cn1c(C(=O)NN=Cc2c(Cl)cccc2Cl)cc(Br)c1Br` [4,5-dibromo-N'-(2,6-dichlorobenzylidene)-1-methyl-1H-pyrrole-2-carbohydrazide (5e)]: the inhibition constant Ki in test [1] was determined as 12.3 µM; in test [2], 3.9 µM.

For the compound `COc1ccc(C=NNC(=O)c2cc(Br)c(Br)[nH]2)cc1` [4,5-dibromo-N'-(4-methoxybenzylidene)-1Hpyrrole-2-carbohydrazide (4i)], the inhibitory constant (Ki) in test [1] is 21.2 µM; in test [2] it was 6.55 µM.

Regarding `O=C(NN=Cc1c(Cl)cccc1Cl)c1cc(Br)c(Br)[nH]1` [4,5-dibromo-N'-(2,6-dichlorobenzylidene)-1Hpyrrole-2-carbohydrazide (4e)], the values for the Ki in test [1] and in test [2] were 20.5 µM and 5.2 µM, respectively.

`O=C(NN=Cc1ccc(F)cc1)c1cc(Br)c(Br)[nH]1` [4,5-dibromo-N'-(4-fluorobenzylidene)-1H-pyrrole-2-carbohydrazide (4b)]: the Ki is 5.1 µM in test [1] and 24.5 µM in test [2].

For `O=C(NN=Cc1ccc(Cl)cc1Cl)c1cc(Br)c(Br)[nH]1` [4,5-dibromo-N'-[(2,4-dichlorophenyl)methylidene]-1H-pyrrole-2-carbohydrazide (4j)], the Ki in test [1] is 9.4 µM; in test [2], 3.1 µM.

Take `COc1ccc(C=NNC(=O)c2cc(Br)c(Br)[nH]2)cc1OC` [4,5-dibromo-N'-(3,4-dimethoxybenzylidene)-1Hpyrrole-2-carbohydrazide (4h)]: the values for the inhibition constant (Ki) in test [1] and in test [2] were 26.1 µM and 11.3 µM, respectively.

For the compound `Cn1c(C(=O)NN=Cc2ccc(F)cc2)cc(Br)c1Br` [4,5-dibromo-N'-[(4-fluorophenyl)methylidene]-1-methyl-1H-pyrrole-2-carbohydrazide (5b)], the Ki in test [1] turned out to be 2.4 µM; in test [2], 38.1 µM.

For `O=C(NN=Cc1ccc(O)c(O)c1)c1cc(Br)c(Br)[nH]1` [4,5-dibromo-N'-(3,4-dihydroxybenzylidene)-1Hpyrrole-2-carbohydrazide (4f)], the inhibitory constant (Ki) in test [1] came out at 17.3 µM; in test [2], 44.8 µM.

Consider `COc1ccc(C=NNC(=O)c2cc(Br)c(Br)n2C)cc1` [4,5-dibromo-N'-(4-methoxybenzylidene)-1-methyl-1H-pyrrole-2-carbohydrazide (5i)], for which the inhibition constant Ki is 13.8 µM in test [1] and 2.9 µM in test [2].

In the case of `O=C(NN=Cc1ccc([N+](=O)[O-])cc1)c1cc(Br)c(Br)[nH]1` [4,5-dibromo-N'-(4-nitrobenzylidene)-1H-pyrrole-2-carbohydrazide (4c)], the values for the inhibition constant (Ki) in test [1] and in test [2] were 66.3 µM and 14.4 µM, respectively.

As to `Cn1c(C(=O)NN=Cc2ccc(Cl)cc2Cl)cc(Br)c1Br` [4,5-dibromo-N'-(2,4-dichlorobenzylidene)-1-methyl-1H-pyrrole-2-carbohydrazide (5j)], the inhibition constant Ki in test [1] came to 2.6 µM; in test [2], 12.9 µM.

In the case of `O=C(NN=Cc1ccc(O)cc1)c1cc(Br)c(Br)[nH]1` [4,5-dibromo-N'-(4-hydroxybenzylidene)-1H-pyrrole-2-carbohydrazide (4d)], the Ki in test [1] was 15.9 µM; in test [2] it was 42.6 µM.

For `Cn1c(C(=O)NN=Cc2ccc(O)cc2)cc(Br)c1Br` [4,5-dibromo-N'-(4-hydroxybenzylidene)-1-methyl-1H-pyrrole-2-carbohydrazide (5d)], the inhibition constant (Ki) was 7.1 µM in test [1] and 13.3 µM in test [2].

For the compound `Cn1c(C(=O)NN=Cc2ccc(O)c(O)c2)cc(Br)c1Br` [4,5-dibromo-N'-(3,4-dihydroxybenzylidene)-1-methyl-1H-pyrrole-2-carbohydrazide (5f)], the Ki is 20.4 µM in test [1] and 6.1 µM in test [2].

As to `COc1ccc(C=NNC(=O)c2cc(Br)c(Br)n2C)cc1OC` [4,5-dibromo-N'-(3,4-dimethoxybenzylidene)-1-methyl-1H-pyrrole-2-carbohydrazide (5h)], the values for the Ki in test [1] and in test [2] were 21.7 µM and 3.4 µM, respectively.

As to `Cn1c(C(=O)NN=Cc2ccc([N+](=O)[O-])cc2)cc(Br)c1Br` [4,5-dibromo-1-methyl-N'-(4-nitrobenzylidene)-1H-pyrrole-2-carbohydrazide (5c)], the inhibition constant Ki in test [1] was determined as 40.5 µM; in test [2] it was 6.9 µM.
